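1) Cells in 96-well plates. 2) Compound, 48 h, 5 concentrations. 3) Linear interpolation between surrounding doses. 4) Unreached endpoint = highest concentration. GI50: concentration for 50% inhibition of growth. TGI: concentration producing complete growth inhibition.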
Assays:
Assay in all cases: NCI anticancer screen, dose series, 48 h
786-0 renal = tested on: 786-0 renal
A498 renal = tested on: A498 renal
A549 NSCLC = tested on: A549 NSCLC
ACHN renal = tested on: ACHN renal
BT-549 breast = tested on: BT-549 breast
CAKI-1 renal = tested on: CAKI-1 renal
CCRF-CEM leukemia = tested on: CCRF-CEM leukemia
COLO 205 colon = tested on: COLO 205 colon
DU-145 prostate = tested on: DU-145 prostate
EKVX NSCLC = tested on: EKVX NSCLC
HCC-2998 colon = tested on: HCC-2998 colon
HCT-116 colon = tested on: HCT-116 colon
HCT-15 colon = tested on: HCT-15 colon
HL-60(TB) leukemia = tested on: HL-60(TB) leukemia
HOP-62 NSCLC = tested on: HOP-62 NSCLC
HOP-92 NSCLC = tested on: HOP-92 NSCLC
HS 578T breast = tested on: HS 578T breast
HT29 colon = tested on: HT29 colon
IGROV1 ovarian = tested on: IGROV1 ovarian
K-562 leukemia = tested on: K-562 leukemia
KM12 colon = tested on: KM12 colon
LOX IMVI melanoma = tested on: LOX IMVI melanoma
M14 melanoma = tested on: M14 melanoma
MALME-3M melanoma = tested on: MALME-3M melanoma
MCF7 breast = tested on: MCF7 breast
MDA-MB-231 breast = tested on: MDA-MB-231 breast
MDA-MB-435 = tested on: MDA-MB-435
MDA-MB-468 breast = tested on: MDA-MB-468 breast
MOLT-4 leukemia = tested on: MOLT-4 leukemia
NCI-H226 lung = tested on: NCI-H226 lung
NCI-H23 lung = tested on: NCI-H23 lung
NCI-H460 lung = tested on: NCI-H460 lung
NCI-H522 lung = tested on: NCI-H522 lung
OVCAR-3 ovarian = tested on: OVCAR-3 ovarian
OVCAR-4 ovarian = tested on: OVCAR-4 ovarian
OVCAR-5 ovarian = tested on: OVCAR-5 ovarian
OVCAR-8 ovarian = tested on: OVCAR-8 ovarian
PC-3 prostate = tested on: PC-3 prostate
RPMI-8226 leukemia = tested on: RPMI-8226 leukemia
RXF 393 renal = tested on: RXF 393 renal
SF-268 CNS = tested on: SF-268 CNS
SF-295 CNS = tested on: SF-295 CNS
SF-539 CNS = tested on: SF-539 CNS
SK-MEL-2 melanoma = tested on: SK-MEL-2 melanoma
SK-MEL-28 melanoma = tested on: SK-MEL-28 melanoma
SK-MEL-5 melanoma = tested on: SK-MEL-5 melanoma
SK-OV-3 ovarian = tested on: SK-OV-3 ovarian
SN12C renal = tested on: SN12C renal
SNB-19 CNS = tested on: SNB-19 CNS
SNB-75 CNS = tested on: SNB-75 CNS
SR leukemia = tested on: SR leukemia
SW-620 colon = tested on: SW-620 colon
T-47D breast = tested on: T-47D breast
TK-10 renal = tested on: TK-10 renal
U251 CNS = tested on: U251 CNS
UACC-257 melanoma = tested on: UACC-257 melanoma
UACC-62 melanoma = tested on: UACC-62 melanoma
UO-31 renal = tested on: UO-31 renal

In the case of `O=c1cc(-c2ccccc2)oc2cc(OCCCNCc3ccccc3)cc(O)c12`, the GI50 (786-0 renal) is reported as 2.98 µM, the TGI (786-0 renal) is reported as 15.5 µM and the GI50 (A498 renal) is reported as 3.94 µM. The TGI (A498 renal) was 16.9 µM, the GI50 (A549 NSCLC) was 4.33 µM and the TGI (A549 NSCLC) was 46.4 µM. The GI50 (ACHN renal) was 3.42 µM, the TGI (ACHN renal) was 14.2 µM and the GI50 (BT-549 breast) was 8.5 µM. It also gave a TGI (BT-549 breast) of 22.2 µM, a GI50 (CAKI-1 renal) of 2.41 µM and a TGI (CAKI-1 renal) of 11 µM. For the same molecule, the GI50 (CCRF-CEM leukemia) was 5.29 µM, the TGI (CCRF-CEM leukemia) was greater than 100 µM and the GI50 (COLO 205 colon) was 1.98 µM. For the same molecule, the TGI (COLO 205 colon) was 3.82 µM, the GI50 (DU-145 prostate) was 7.59 µM and the TGI (DU-145 prostate) was 20.4 µM. For the same molecule, the GI50 (EKVX NSCLC) was 13.8 µM, the TGI (EKVX NSCLC) was 36.4 µM and the GI50 (HCC-2998 colon) was 1.91 µM. For the same molecule, the TGI (HCC-2998 colon) was 3.64 µM, the GI50 (HCT-116 colon) was 3.72 µM and the TGI (HCT-116 colon) was 27.7 µM. It also gave a GI50 (HCT-15 colon) of 3.54 µM, a TGI (HCT-15 colon) of 13.1 µM and a GI50 (HL-60(TB) leukemia) of 1.89 µM. It also gave a TGI (HL-60(TB) leukemia) of 5.03 µM, a GI50 (HOP-62 NSCLC) of 11.5 µM and a TGI (HOP-62 NSCLC) of 44.4 µM. It also gave a GI50 (HOP-92 NSCLC) of 1.56 µM, a TGI (HOP-92 NSCLC) of 17.1 µM and a GI50 (HS 578T breast) of 4.08 µM. It also gave a TGI (HS 578T breast) of 33.7 µM, a GI50 (HT29 colon) of 3.15 µM and a TGI (HT29 colon) of 27.3 µM. For the same molecule, the GI50 (IGROV1 ovarian) was 3.37 µM, the TGI (IGROV1 ovarian) was 15.7 µM and the GI50 (K-562 leukemia) was 3.16 µM. It also gave a TGI (K-562 leukemia) greater than 100 µM, a GI50 (KM12 colon) of 3.77 µM and a TGI (KM12 colon) of 14.5 µM. It also gave a GI50 (LOX IMVI melanoma) of 1.84 µM, a TGI (LOX IMVI melanoma) of 3.92 µM and a GI50 (M14 melanoma) of 2.64 µM. The TGI (M14 melanoma) was 6.88 µM, the GI50 (MALME-3M melanoma) was 1.53 µM and the TGI (MALME-3M melanoma) was 3.2 µM. For the same molecule, the GI50 (MCF7 breast) was 2.61 µM, the TGI (MCF7 breast) was 10.3 µM and the GI50 (MDA-MB-231 breast) was 2.89 µM. It also gave a TGI (MDA-MB-231 breast) of 12.9 µM, a GI50 (MDA-MB-435) of 10.1 µM and a TGI (MDA-MB-435) of 21.7 µM. The GI50 (MDA-MB-468 breast) was 2.08 µM, the TGI (MDA-MB-468 breast) was 5.21 µM and the GI50 (MOLT-4 leukemia) was 3.53 µM. For the same molecule, the TGI (MOLT-4 leukemia) was greater than 100 µM, the GI50 (NCI-H226 lung) was 11.1 µM and the TGI (NCI-H226 lung) was 41.9 µM. For the same molecule, the GI50 (NCI-H23 lung) was 11.9 µM, the TGI (NCI-H23 lung) was 26.3 µM and the GI50 (NCI-H460 lung) was 4.15 µM. It also gave a TGI (NCI-H460 lung) of 20.8 µM, a GI50 (NCI-H522 lung) of 6.21 µM and a TGI (NCI-H522 lung) of 26.2 µM. The GI50 (OVCAR-3 ovarian) was 10 µM, the TGI (OVCAR-3 ovarian) was 23.7 µM and the GI50 (OVCAR-4 ovarian) was 2.78 µM. For the same molecule, the TGI (OVCAR-4 ovarian) was 8.84 µM, the GI50 (OVCAR-5 ovarian) was 10 µM and the TGI (OVCAR-5 ovarian) was 22.9 µM. For the same molecule, the GI50 (OVCAR-8 ovarian) was 10.2 µM, the TGI (OVCAR-8 ovarian) was greater than 100 µM and the GI50 (PC-3 prostate) was 5.05 µM. For the same molecule, the TGI (PC-3 prostate) was 32.4 µM, the GI50 (RPMI-8226 leukemia) was 3.46 µM and the TGI (RPMI-8226 leukemia) was greater than 100 µM. It also gave a GI50 (RXF 393 renal) of 1.97 µM, a TGI (RXF 393 renal) of 8.11 µM and a GI50 (SF-268 CNS) of 4.81 µM. It also gave a TGI (SF-268 CNS) of 30.3 µM, a GI50 (SF-295 CNS) of 4.72 µM and a TGI (SF-295 CNS) of 18 µM. The GI50 (SF-539 CNS) was 5.64 µM, the TGI (SF-539 CNS) was 18.7 µM and the GI50 (SK-MEL-2 melanoma) was 6.43 µM. The TGI (SK-MEL-2 melanoma) was 19.7 µM, the GI50 (SK-MEL-28 melanoma) was 2.31 µM and the TGI (SK-MEL-28 melanoma) was 5.39 µM. For the same molecule, the GI50 (SK-MEL-5 melanoma) was 5.04 µM, the TGI (SK-MEL-5 melanoma) was 16.9 µM and the GI50 (SK-OV-3 ovarian) was 10.2 µM. It also gave a TGI (SK-OV-3 ovarian) of 22.6 µM, a GI50 (SN12C renal) of 4.19 µM and a TGI (SN12C renal) of 24.6 µM. It also gave a GI50 (SNB-19 CNS) of 10.4 µM, a TGI (SNB-19 CNS) of 31.2 µM and a GI50 (SNB-75 CNS) of 2.4 µM. For the same molecule, the TGI (SNB-75 CNS) was 16.5 µM, the GI50 (SR leukemia) was 2.91 µM and the TGI (SR leukemia) was greater than 100 µM. The GI50 (SW-620 colon) was 5.98 µM, the TGI (SW-620 colon) was 21.1 µM and the GI50 (T-47D breast) was 2.81 µM. It also gave a TGI (T-47D breast) of 8.68 µM, a GI50 (TK-10 renal) of 14.8 µM and a TGI (TK-10 renal) of 28.8 µM. For the same molecule, the GI50 (U251 CNS) was 3.69 µM, the TGI (U251 CNS) was 19.1 µM and the GI50 (UACC-257 melanoma) was 2.13 µM. The TGI (UACC-257 melanoma) was 5.1 µM, the GI50 (UACC-62 melanoma) was 1.77 µM and the TGI (UACC-62 melanoma) was 3.49 µM. The GI50 (UO-31 renal) was 1.15 µM and the TGI (UO-31 renal) was 8.66 µM.
